Laboratory results reported in PMC6429214, “Design, Synthesis and Biological Evaluation of Isoxazole-Based CK1 Inhibitors Modified with Chiral Pyrrolidine Scaffolds” (Molecules, 2019).

Tests used:
Test in all cases: 33PanQinase panel
Format in all cases: biochemical
[1] = biological target: T1, ACV-R1 (Homo sapiens, UniProt Q04771); conditions: ACV-R1, 1 µM; read-out: Residual Activity (%)
T1 construct: purchased ProQinase
Method: (§1) Figure 5 Dendrogram representation of the selectivity profile of 29d at a concentration of 1 μM in a panel of 320 wild-type kinases (ProQinase, Freiburg, Germany). The residual kinase activity was determined compared to DMSO control. Images were generated using TREEspot Software Tool, DISCOVERX CORPORATION 2010.
(§2) Figure S1. X-ray crystal structure of intermediate compound 25d (ORTEP drawing with ellipsoids at 30% probability). CCDC 1589043 contains the supplementary crystallographic data for this paper. The data can be obtained free of charge from The Cambridge Crystallographic Data Centre via www.ccdc.cam.ac.uk/structures.
(§3) Table S1 Data collection, structure refinement and Ramachrandran plot results of protein crystallization of CK1δ in complex with compound 30a and 30b, respectively.
(§4) Root-mean-square deviations
(§5) Additionally allowed 2.6 2.2
(§6) Table S2. Selectivity profile of compound 29d. The inhibitor has been screened at a concentration of 1 µM over a panel of 320 wild-type protein kinases by ProQinase GmbH (Freiburg, Germany) using an activity-based radiometric 33PanQinase® assay. Results are presented as percentage of residual kinase activity relative to […]
(§7) control. The final DMSO concentration was 1 % in each reaction-mix. Classification of protein kinase families refers to Manning et al. (Manning, G.; Whyte, D. B.; Martinez, R.; Hunter, T.; Sudarsanam, S. The Protein Kinase Complement of the Human Genome. Science 2002, 298, 1912–1934): AGC = containing PKA, PKG, PKC families; […] = containing Cdk, MAPK, GSK3, CLK families; STE = homologs of yeast sterile 7, sterile 11, sterile 20 kinases; TK = tyrosine kinase; TKL = tyrosine kinase-like.
(§8) Kinase name Kinase family Residual Activity (%)

[2] = biological target: T2, ASK1 (Homo sapiens, UniProt Q99683); conditions: ASK1, 1 µM; read-out: Residual Activity (%)
T2 construct: purchased ProQinase
Method: as §1, §2, §3, §4, §5, §6, §7, §8

[3] = biological target: T3, BLK (Homo sapiens, UniProt P51451); conditions: read-out: Residual Activity (%)
T3 construct: purchased ProQinase
Method: as §1, §2, §3, §4, §5, §6, §7, §8

[4] = biological target: T4, CAMK2A (Homo sapiens, UniProt Q9UQM7); conditions: read-out: Residual Activity (%)
T4 construct: purchased ProQinase
Method: as §1, §2, §3, §4, §5, §6, §7, §8

[5] = biological target: T5, CK1-alpha1 (Homo sapiens, UniProt P48729); conditions: CK1-alpha1, 1 µM; read-out: Residual Activity (%)
T5 construct: purchased ProQinase
Method: as §1, §2, §3, §4, §5, §6, §7, §8

[6] = biological target: T6, CLK1 (Homo sapiens, UniProt P49759); conditions: CLK1, 1 µM; read-out: Residual Activity (%)
T6 construct: purchased ProQinase
Method: as §1, §2, §3, §4, §5, §6, §7, §8

[7] = biological target: T7, EIF2AK3 (Homo sapiens, UniProt Q9NZJ5); conditions: EIF2AK3, 1 µM; read-out: Residual Activity (%)
T7 construct: purchased ProQinase
Method: as §1, §2, §3, §4, §5, §6, §7, §8

[8] = biological target: T8, GRK3 (Homo sapiens, UniProt P35626); conditions: GRK3, 1 µM; read-out: Residual Activity (%)
T8 construct: purchased ProQinase
T8 sequence (P35626 whole entry): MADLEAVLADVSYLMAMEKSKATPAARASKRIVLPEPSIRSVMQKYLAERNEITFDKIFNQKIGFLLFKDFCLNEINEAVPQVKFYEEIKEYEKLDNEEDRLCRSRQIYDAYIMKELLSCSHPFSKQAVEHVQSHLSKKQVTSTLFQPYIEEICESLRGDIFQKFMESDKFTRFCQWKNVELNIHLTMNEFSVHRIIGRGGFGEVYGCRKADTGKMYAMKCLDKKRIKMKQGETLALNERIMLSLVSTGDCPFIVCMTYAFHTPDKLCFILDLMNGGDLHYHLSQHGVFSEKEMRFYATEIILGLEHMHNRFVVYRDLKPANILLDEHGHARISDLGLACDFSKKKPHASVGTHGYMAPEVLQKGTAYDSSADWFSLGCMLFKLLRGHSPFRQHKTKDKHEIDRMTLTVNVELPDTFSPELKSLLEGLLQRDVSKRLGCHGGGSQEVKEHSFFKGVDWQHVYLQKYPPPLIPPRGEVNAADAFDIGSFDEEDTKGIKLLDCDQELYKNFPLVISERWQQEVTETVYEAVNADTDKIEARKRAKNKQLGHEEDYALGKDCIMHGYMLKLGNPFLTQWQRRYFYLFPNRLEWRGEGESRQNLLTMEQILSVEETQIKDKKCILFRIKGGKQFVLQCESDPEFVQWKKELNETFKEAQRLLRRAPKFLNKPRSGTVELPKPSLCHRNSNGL
Method: as §1, §2, §3, §4, §5, §6, §7, §8

[9] = biological target: T9, MAP3K10 (Homo sapiens, UniProt Q02779); conditions: MAP3K10, 1 µM; read-out: Residual Activity (%)
T9 construct: purchased ProQinase
Method: as §1, §2, §3, §4, §5, §6, §7, §8

[10] = biological target: T10, MAP3K11 (Homo sapiens, UniProt Q16584); conditions: MAP3K11, 1 µM; read-out: Residual Activity (%)
T10 construct: purchased ProQinase
Method: as §1, §2, §3, §4, §5, §6, §7, §8

[11] = biological target: T11, MAP4K5 (Homo sapiens, UniProt Q9Y4K4); conditions: MAP4K5, 1 µM; read-out: Residual Activity (%)
T11 construct: purchased ProQinase
Method: as §1, §2, §3, §4, §5, §6, §7, §8

[12] = biological target: T12, MARK3 (Homo sapiens, UniProt P27448); conditions: MARK3, 1 µM; read-out: Residual Activity (%)
T12 construct: purchased ProQinase
Method: as §1, §2, §3, §4, §5, §6, §7, §8

[13] = biological target: T13, MARK4 (Homo sapiens, UniProt Q96L34); conditions: MARK4, 1 µM; read-out: Residual Activity (%)
T13 construct: purchased ProQinase
Method: as §1, §2, §3, §4, §5, §6, §7, §8

[14] = biological target: T14, NEK9 (Homo sapiens, UniProt Q8TD19); conditions: NEK9, 1 µM; read-out: Residual Activity (%)
T14 construct: purchased ProQinase
Method: as §1, §2, §3, §4, §5, §6, §7, §8

[15] = biological target: T15, NIK (Homo sapiens, UniProt Q99558); conditions: read-out: Residual Activity (%)
T15 construct: purchased ProQinase
T15 sequence (Q99558 whole entry): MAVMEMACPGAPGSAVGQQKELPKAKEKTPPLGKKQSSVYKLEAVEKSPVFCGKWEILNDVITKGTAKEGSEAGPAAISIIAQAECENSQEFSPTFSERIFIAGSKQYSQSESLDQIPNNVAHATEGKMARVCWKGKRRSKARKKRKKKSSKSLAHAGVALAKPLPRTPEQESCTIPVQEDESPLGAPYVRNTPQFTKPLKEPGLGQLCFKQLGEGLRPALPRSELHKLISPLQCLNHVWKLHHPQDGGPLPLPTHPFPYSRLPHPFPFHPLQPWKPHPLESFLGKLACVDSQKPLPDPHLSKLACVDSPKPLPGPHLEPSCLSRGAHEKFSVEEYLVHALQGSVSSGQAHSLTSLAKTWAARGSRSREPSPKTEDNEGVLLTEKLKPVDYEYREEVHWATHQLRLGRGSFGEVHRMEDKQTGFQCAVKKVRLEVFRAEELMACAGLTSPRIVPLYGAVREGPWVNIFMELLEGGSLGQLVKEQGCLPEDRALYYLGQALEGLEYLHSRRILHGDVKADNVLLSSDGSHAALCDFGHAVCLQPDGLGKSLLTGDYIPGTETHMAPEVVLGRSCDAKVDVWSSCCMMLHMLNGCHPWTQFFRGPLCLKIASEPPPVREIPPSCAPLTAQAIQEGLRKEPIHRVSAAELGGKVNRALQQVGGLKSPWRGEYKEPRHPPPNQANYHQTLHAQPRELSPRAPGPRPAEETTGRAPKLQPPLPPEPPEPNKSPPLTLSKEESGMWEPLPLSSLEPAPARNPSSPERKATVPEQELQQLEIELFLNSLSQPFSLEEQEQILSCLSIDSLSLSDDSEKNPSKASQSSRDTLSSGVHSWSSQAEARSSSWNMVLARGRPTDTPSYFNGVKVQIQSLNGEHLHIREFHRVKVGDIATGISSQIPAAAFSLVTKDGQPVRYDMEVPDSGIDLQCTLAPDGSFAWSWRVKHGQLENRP
Method: as §1, §2, §3, §4, §5, §6, §7, §8

[16] = biological target: T16, PIM2 (Homo sapiens, UniProt Q9P1W9); conditions: PIM2, 1 µM; read-out: Residual Activity (%)
T16 construct: purchased ProQinase
T16 sequence (Q9P1W9 whole entry): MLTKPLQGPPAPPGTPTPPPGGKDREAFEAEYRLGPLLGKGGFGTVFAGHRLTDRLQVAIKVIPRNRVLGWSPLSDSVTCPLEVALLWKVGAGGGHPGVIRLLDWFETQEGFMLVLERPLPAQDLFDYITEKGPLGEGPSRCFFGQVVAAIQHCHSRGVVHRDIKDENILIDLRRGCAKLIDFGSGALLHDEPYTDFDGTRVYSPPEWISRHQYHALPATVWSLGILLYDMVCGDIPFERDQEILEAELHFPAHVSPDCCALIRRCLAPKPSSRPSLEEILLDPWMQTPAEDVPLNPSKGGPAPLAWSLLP
Method: as §1, §2, §3, §4, §5, §6, §7, §8

[17] = biological target: T17, PKC-nu (Homo sapiens, UniProt O94806); conditions: read-out: Residual Activity (%)
T17 construct: purchased ProQinase
Method: as §1, §2, §3, §4, §5, §6, §7, §8

[18] = biological target: T18, PKC-theta (Homo sapiens, UniProt Q04759); conditions: read-out: Residual Activity (%)
T18 construct: purchased ProQinase
Method: as §1, §2, §3, §4, §5, §6, §7, §8

[19] = biological target: T19, PRKG2 (Homo sapiens, UniProt Q13237); conditions: PRKG2, 1 µM; read-out: Residual Activity (%)
T19 construct: purchased ProQinase
Method: as §1, §2, §3, §4, §5, §6, §7, §8

[20] = biological target: T20, RPS6KA6 (Homo sapiens, UniProt Q9UK32); conditions: RPS6KA6, 1 µM; read-out: Residual Activity (%)
T20 construct: purchased ProQinase
Method: as §1, §2, §3, §4, §5, §6, §7, §8

[21] = biological target: T21, S6K-beta (Homo sapiens, UniProt Q9UBS0); conditions: read-out: Residual Activity (%)
T21 construct: purchased ProQinase
T21 sequence (Q9UBS0 whole entry): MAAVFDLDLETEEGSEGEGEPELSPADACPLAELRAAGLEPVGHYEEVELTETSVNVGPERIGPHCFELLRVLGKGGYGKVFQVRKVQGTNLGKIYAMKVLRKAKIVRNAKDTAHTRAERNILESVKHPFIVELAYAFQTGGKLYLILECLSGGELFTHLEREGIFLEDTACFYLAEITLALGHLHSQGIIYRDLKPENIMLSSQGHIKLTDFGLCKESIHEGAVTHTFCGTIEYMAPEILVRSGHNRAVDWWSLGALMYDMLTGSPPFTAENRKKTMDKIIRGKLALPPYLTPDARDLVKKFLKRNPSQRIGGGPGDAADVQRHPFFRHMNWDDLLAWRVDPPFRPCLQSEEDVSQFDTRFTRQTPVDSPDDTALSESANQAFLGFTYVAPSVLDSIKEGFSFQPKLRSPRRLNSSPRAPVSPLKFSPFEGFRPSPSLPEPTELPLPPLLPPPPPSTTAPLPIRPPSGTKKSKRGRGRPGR
Method: as §1, §2, §3, §4, §5, §6, §7, §8

[22] = biological target: T22, SGK3 (Homo sapiens, UniProt Q96BR1); conditions: SGK3, 1 µM; read-out: Residual Activity (%)
T22 construct: purchased ProQinase
Method: as §1, §2, §3, §4, §5, §6, §7, §8

[23] = biological target: T23, TGFB-R2 (Homo sapiens, UniProt P37173); conditions: TGFB-R2, 1 µM; read-out: Residual Activity (%)
T23 construct: purchased ProQinase
Method: as §1, §2, §3, §4, §5, §6, §7, §8

[24] = biological target: T24, TLK2 (Homo sapiens, UniProt Q86UE8); conditions: TLK2, 1 µM; read-out: Residual Activity (%)
T24 construct: purchased ProQinase
Method: as §1, §2, §3, §4, §5, §6, §7, §8

[25] = biological target: T25, TRK-B (Homo sapiens, UniProt Q16620); conditions: read-out: Residual Activity (%)
T25 construct: purchased ProQinase
T25 sequence (Q16620 32-822): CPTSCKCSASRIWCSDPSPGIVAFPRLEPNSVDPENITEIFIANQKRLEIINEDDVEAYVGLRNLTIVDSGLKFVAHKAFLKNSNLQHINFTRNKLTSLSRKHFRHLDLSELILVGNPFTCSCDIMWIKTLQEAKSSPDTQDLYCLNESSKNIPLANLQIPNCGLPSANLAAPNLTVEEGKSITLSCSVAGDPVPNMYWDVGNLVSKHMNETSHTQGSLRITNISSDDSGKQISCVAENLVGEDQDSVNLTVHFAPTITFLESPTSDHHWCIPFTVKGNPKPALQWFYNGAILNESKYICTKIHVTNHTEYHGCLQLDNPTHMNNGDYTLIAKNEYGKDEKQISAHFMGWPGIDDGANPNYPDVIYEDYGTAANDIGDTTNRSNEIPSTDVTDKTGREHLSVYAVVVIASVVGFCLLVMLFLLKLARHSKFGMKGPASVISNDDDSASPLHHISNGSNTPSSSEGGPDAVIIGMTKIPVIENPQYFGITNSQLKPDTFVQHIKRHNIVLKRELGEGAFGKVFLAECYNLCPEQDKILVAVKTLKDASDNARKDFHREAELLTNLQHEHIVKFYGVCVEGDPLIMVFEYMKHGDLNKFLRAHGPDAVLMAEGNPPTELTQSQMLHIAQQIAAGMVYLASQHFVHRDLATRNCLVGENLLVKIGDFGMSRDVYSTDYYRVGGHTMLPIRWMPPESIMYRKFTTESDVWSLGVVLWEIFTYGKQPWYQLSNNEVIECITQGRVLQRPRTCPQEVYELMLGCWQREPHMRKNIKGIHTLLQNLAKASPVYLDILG
Method: as §1, §2, §3, §4, §5, §6, §7, §8

[26] = biological target: T26, TTBK1 (Homo sapiens, UniProt Q5TCY1); conditions: TTBK1, 1 µM; read-out: Residual Activity (%)
T26 construct: purchased ProQinase
T26 sequence (Q5TCY1 whole entry): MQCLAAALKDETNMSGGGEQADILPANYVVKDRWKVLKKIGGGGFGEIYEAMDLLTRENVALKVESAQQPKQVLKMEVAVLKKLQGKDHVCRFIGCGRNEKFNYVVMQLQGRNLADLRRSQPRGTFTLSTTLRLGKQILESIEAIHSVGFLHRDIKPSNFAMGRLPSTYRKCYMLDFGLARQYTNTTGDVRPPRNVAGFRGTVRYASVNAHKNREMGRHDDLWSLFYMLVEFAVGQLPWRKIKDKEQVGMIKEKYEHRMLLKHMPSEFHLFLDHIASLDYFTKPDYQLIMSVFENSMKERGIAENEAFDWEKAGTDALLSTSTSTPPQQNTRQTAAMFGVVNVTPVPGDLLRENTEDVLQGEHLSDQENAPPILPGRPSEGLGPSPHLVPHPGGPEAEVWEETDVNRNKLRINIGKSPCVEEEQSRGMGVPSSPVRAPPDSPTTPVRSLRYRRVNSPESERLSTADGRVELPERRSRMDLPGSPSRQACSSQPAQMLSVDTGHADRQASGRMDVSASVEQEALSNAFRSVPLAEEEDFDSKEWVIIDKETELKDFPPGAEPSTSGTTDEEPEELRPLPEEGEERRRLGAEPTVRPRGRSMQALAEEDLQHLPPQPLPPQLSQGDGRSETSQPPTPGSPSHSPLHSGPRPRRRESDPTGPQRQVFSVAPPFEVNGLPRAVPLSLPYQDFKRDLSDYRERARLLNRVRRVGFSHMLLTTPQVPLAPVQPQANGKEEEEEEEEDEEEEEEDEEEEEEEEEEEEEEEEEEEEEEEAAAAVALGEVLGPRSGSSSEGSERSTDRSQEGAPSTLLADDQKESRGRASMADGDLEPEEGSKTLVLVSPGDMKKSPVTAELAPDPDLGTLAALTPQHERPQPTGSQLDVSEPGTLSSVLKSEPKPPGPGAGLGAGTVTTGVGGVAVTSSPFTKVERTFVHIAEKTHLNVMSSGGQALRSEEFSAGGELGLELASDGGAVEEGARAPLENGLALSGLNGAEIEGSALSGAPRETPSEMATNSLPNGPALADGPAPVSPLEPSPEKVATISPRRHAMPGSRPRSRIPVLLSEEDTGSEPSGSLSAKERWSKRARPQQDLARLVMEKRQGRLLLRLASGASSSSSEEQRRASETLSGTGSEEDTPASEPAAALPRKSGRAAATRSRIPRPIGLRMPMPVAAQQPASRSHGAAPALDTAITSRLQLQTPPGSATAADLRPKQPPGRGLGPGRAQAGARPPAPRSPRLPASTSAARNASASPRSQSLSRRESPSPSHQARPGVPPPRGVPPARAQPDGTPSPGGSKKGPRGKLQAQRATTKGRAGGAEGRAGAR
Method: as §1, §2, §3, §4, §5, §6, §7, §8

[27] = biological target: T27, WNK2 (Homo sapiens, UniProt Q9Y3S1); conditions: WNK2, 1 µM; read-out: Residual Activity (%)
T27 construct: purchased ProQinase
Method: as §1, §2, §3, §4, §5, §6, §7, §8

T1 sequence (Q04771 21-509): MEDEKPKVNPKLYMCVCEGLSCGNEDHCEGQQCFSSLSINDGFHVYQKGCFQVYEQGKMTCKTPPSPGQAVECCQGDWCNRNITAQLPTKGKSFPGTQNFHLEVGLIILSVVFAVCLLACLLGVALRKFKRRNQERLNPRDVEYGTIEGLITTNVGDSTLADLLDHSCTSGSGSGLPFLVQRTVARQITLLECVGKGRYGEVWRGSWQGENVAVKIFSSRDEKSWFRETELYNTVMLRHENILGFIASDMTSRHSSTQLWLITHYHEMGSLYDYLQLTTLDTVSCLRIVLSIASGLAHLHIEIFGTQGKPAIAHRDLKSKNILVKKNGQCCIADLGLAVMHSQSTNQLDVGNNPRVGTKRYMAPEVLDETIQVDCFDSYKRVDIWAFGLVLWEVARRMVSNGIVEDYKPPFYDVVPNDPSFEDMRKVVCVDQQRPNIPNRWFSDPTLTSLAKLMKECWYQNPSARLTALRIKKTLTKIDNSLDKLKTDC

SMILES: COc1ccc(-c2cc(C(=O)Nc3cc(-c4c(-c5ccc(F)cc5)noc4C(C)C)ccn3)n(CC3NCC(O)C3O)c2)cc1 (stereo not drawn) [29d]
- remaining activity at 1 µM [1]: 105%
- remaining activity at 1 µM [2]: 107%
- remaining activity at 1 µM [3]: 110%
- remaining activity at 1 µM [4]: 87%
- remaining activity at 1 µM [5]: 16%
- remaining activity at 1 µM [6]: 97%
- remaining activity at 1 µM [7]: 104%
- remaining activity at 1 µM [8]: 109%
- remaining activity at 1 µM [9]: 120%
- remaining activity at 1 µM [10]: 88%
- remaining activity at 1 µM [11]: 96%
- remaining activity at 1 µM [12]: 96%
- remaining activity at 1 µM [13]: 112%
- remaining activity at 1 µM [14]: 91%
- remaining activity at 1 µM [15]: 98%
- remaining activity at 1 µM [16]: 84%
- remaining activity at 1 µM [17]: 90%
- remaining activity at 1 µM [18]: 101%
- remaining activity at 1 µM [19]: 100%
- remaining activity at 1 µM [20]: 89%
- remaining activity at 1 µM [21]: 96%
- remaining activity at 1 µM [22]: 97%
- remaining activity at 1 µM [23]: 69%
- remaining activity at 1 µM [24]: 108%
- remaining activity at 1 µM [25]: 120%
- remaining activity at 1 µM [26]: 104%
- remaining activity at 1 µM [27]: 103%
